Literature values, collected in publication PMC7211195 (Investigational New Drugs, 2019).
Like-named read-outs stand apart in the source and are kept apart here.

Key:
[1] = in rats, cited from earlier work
[2] = cited from earlier work
[3] = design: method as in PMID 19276246; settings: cited from earlier work; for increase in concentration in the brain: abcb1a/1b;abcg2(−/−) mice
[4] = design: method as in PMID 24113148; settings: cited from earlier work

In the case of `COc1cc2c(cc1OC)CN(CCc1ccc(NC(=O)c3cccc4c(=O)c5cccc(OC)c5[nH]c34)cc1)CC2` [Elacridar, 9,10-dihydro-5-methoxy-9-oxo-N-[4-[2-(1,2,3,4-tetrahydro-6,7-dimethoxy-2-isoquinolinyl)ethyl]phenyl]-4-acridine-carboxamide], the “bound to plasma proteins” value ([1]; ref 16) is listed as 98.1 ± 1.7% and the “bound to plasma proteins” value ([1]; ref 30) is listed as 99.0 ± 0.6%.

In the case of `C[C@@H](Oc1cc(-c2cnn(C3CCNCC3)c2)cnc1N)c1c(Cl)ccc(F)c1Cl` [crizotinib], the “brain accumulation after 24 h, times greater” value ([2]; 5 mg/kg b.w., knockout vs WT mice) is given as “approximately 40 times”, the “higher BP exposure than WT mice” value ([2]; abcb1a/1b(−/−) and abcb1a/1b;abcg2(−/−) mice, 5 mg/kg b.w.) is given as “approximately 2 times” and the “brain accumulation, times greater than in WT mice” value ([2]; abcb1a/1b(−/−) mice, dose increased ten-fold) is given as “approximately 70 times”.

For `Cc1nc(Nc2ncc(C(=O)Nc3c(C)cccc3Cl)s2)cc(N2CCN(CCO)CC2)n1` [dasatinib], the “brain-to-plasma ratio increase with elacridar” value ([3]; WT mice) is given as 4.4 times, the “increase in concentration in the brain” value ([3]; intraperitoneal administration) is given as 22.7 times and the “increase in concentration in the brain” value ([3]; oral administration) is given as 13.2 times.

For `CCN(CC)CCNC(=O)c1c(C)[nH]c(/C=C2\C(=O)Nc3ccc(F)cc32)c1C` [sunitinib], the DTIBT ([4]; bcrp1(−/−) mice) is listed as 2.1, the DTIBT ([4]; mdr1a/b(−/−) mice) is listed as 3.9 and the DTIBT ([4]; mice with both knockout genes) is listed as 48.9.
